# Measured values from patent US20190085289A1, “COMPOSITIONS AND METHODS FOR PATHOGEN INACTIVATION OF PLATELETS” (Cerus Corporation, priority 2017, published 2019).
# How the values were obtained:
# [1] = Stability of S-59 in InterSol PAS under ambient light (HPLC); format: physicochemical; settings: for S-59 UV peak area (HPLC) / S-59 concentration (HPLC): 230 μM in InterSol PAS, room temp
# Experimental: Initial studies evaluated stability of the pathogen inactivation compound amotosalen (S-59) that was formulated in a platelet additive solution (PAS). A 230 μM solution of psoralen compound S-59 (Irsch et al., Transfus Med Hemother, 38: 19-31 (2011)) was prepared in the commercially available PAS solution InterSol® (Fenwal Inc.) and maintained at room temperature under ambient light conditions. HPLC analysis was performed on samples at times listed in Table 1 for both S-59 and photoproducts. […] S-59 data are shown as both concentration (μM), as well as peak area (S-59 UV) for relative comparison to any photoproducts detected with HPLC (Table 1). Peak D and Peak E photoproducts also were observed by 22 hr and 72 hr, respectively, as well as process impurity decomposition product 4′-HMT, with peak area values indicated (Table 1).
# [2] = Stability and photoconversion of S-59 in 65% PAS/35% plasma with platelets (HPLC); format: physicochemical; settings: for S-59 UV peak area (HPLC) / S-59 concentration (HPLC): 150 μM in 65% InterSol PAS/35% plasma with platelets
# Experimental: A further study evaluated stability and photoconversion of amotosalen (S-59) in PAS with added plasma, and also containing platelets. S-59 was added at a concentration of 150 μM to 65% InterSol® PAS and 35% plasma a suspended preparation of platelets, and the admixture maintained in a platelet incubator during the study time course. Samples were removed for HPLC analysis at times 0, 5, 21, 29 and 48 hours, and the mixture was then treated with ˜3 J of UVA light at 55 hours with a post-UVA sample also analyzed by HPLC for both S-59 and photoproducts. […] Peak D and Peak E photoproducts were not detected (Table 3).
# FCV = FCV inactivation with decreasing amounts of S-59 after pre-incubation, plaque assay; format: cell-based, feline calicivirus (FCV); settings: for FCV titer after UVA: UVA ~3 J/cm^2; for FCV log inactivation: vs 0 hr control titer 5.84
# Experimental: An additional study was performed to evaluate the level of FCV inactivation with decreasing amounts of S-59 after extended incubation (e.g., pre-incubation) in PAS/Plasma. In this study, platelets in PAS/Plasma (65%/35%) were spiked with a stock of FCV at a 1:100 dilution. The FCV-spiked platelets were then split into 16 separate test units. Each unit was dosed with S-59 at approximately 150 μM, 90 μM, 30 μM or 15 μM concentration. Following the addition of S-59 in one of four dosing groups, the platelet units in each dosing group were incubated for 0, 4, 8 or 24 hr prior to illumination. A control sample was taken from each unit for virus titer determination and HPLC analysis of S-59 concentration pre-UVA treatment, followed by UVA light exposure at ˜3 J/cm^2 for photochemical treatment of the test samples. Following UVA treatment, the control and test samples were evaluated for inactivation of FCV using a standard virological plaque assay. […] Control titer at 0 hr pool used for all log inactivation calculations (5.84 log/mL).
# [3] = S-59 15 μM, pre-incubation 0 hr
# [4] = S-59 15 μM, pre-incubation 4 hr
# [5] = S-59 15 μM, pre-incubation 8 hr
# [6] = S-59 15 μM, pre-incubation 24 hr
# [7] = S-59 30 μM, pre-incubation 0 hr
# [8] = S-59 30 μM, pre-incubation 4 hr
# [9] = S-59 30 μM, pre-incubation 8 hr
# [10] = S-59 30 μM, pre-incubation 24 hr
# [11] = S-59 90 μM, pre-incubation 0 hr
# [12] = S-59 90 μM, pre-incubation 4 hr
# [13] = S-59 90 μM, pre-incubation 8 hr
# [14] = S-59 90 μM, pre-incubation 24 hr
# [15] = S-59 150 μM, pre-incubation 0 hr
# [16] = S-59 150 μM, pre-incubation 4 hr
# [17] = S-59 150 μM, pre-incubation 8 hr
# [18] = S-59 150 μM, pre-incubation 24 hr
smiles,measurement,setting,value
"Cc1oc2c(C)c3oc(=O)cc(C)c3cc2c1COCCN [S-59, 3-(2-aminoethoxymethyl)-2,5,9-trimethylfuro[3,2-g]chromen-7-one]",S-59 UV peak area (HPLC),[1]; 5 hr,3593.309
same,S-59 concentration (HPLC),[1]; 5 hr,230.62 µM
same,S-59 UV peak area (HPLC),[1]; 6 hr,3575.825
same,S-59 concentration (HPLC),[1]; 6 hr,229.50 µM
same,S-59 UV peak area (HPLC),[1]; 22 hr,3485.467
same,S-59 concentration (HPLC),[1]; 22 hr,223.71 µM
same,S-59 UV peak area (HPLC),[1]; 30 hr,3529.854
same,S-59 concentration (HPLC),[1]; 30 hr,226.56 µM
same,S-59 UV peak area (HPLC),[1]; 47 hr,3486.293
same,S-59 concentration (HPLC),[1]; 47 hr,223.76 µM
same,S-59 UV peak area (HPLC),[1]; 56 hr,3440.455
same,S-59 concentration (HPLC),[1]; 56 hr,220.82 µM
same,S-59 UV peak area (HPLC),[1]; 72 hr,3534.894
same,S-59 concentration (HPLC),[1]; 72 hr,226.88 µM
same,S-59 UV peak area (HPLC),[1]; 78 hr,3485.093
same,S-59 concentration (HPLC),[1]; 78 hr,223.69 µM
same,S-59 UV peak area (HPLC),[1]; T 0,3700.439
same,S-59 concentration (HPLC),[1]; T 0,237.49 µM
same,loss of S-59,"[1]; InterSol PAS, at 78 hours",< 6%
same,S-59 UV peak area (HPLC),"[2]; platelet incubator, 5 hr",1738.331
same,S-59 concentration (HPLC),"[2]; platelet incubator, 5 hr",149.30 µM
same,S-59 UV peak area (HPLC),"[2]; platelet incubator, 21 hr",1739.214
same,S-59 concentration (HPLC),"[2]; platelet incubator, 21 hr",147.81 µM
same,S-59 UV peak area (HPLC),"[2]; platelet incubator, 29 hr",1725.882
same,S-59 concentration (HPLC),"[2]; platelet incubator, 29 hr",148.04 µM
same,S-59 UV peak area (HPLC),"[2]; platelet incubator, 48 hr",1750.513
same,S-59 concentration (HPLC),"[2]; platelet incubator, 48 hr",148.06 µM
same,S-59 UV peak area (HPLC),"[2]; platelet incubator, T 0",1752.513
same,S-59 concentration (HPLC),"[2]; platelet incubator, T 0",148.12 µM
same,S-59 UV peak area (HPLC),[2]; 55 hr post-UVA (~3 J UVA),274.897
same,S-59 concentration (HPLC),[2]; 55 hr post-UVA (~3 J UVA),22.71 µM
same,S-59 remaining in the post-UVA samples,"[2]; 150 μM, 55 hour incubation in PAS/plasma with platelets, then ~3 J UVA",15.3%
same,loss of S-59,"[2]; PAS/plasma/platelets admixture, prior to the UVA treatment at 55 hours",no loss
same,FCV titer after UVA,FCV; [3],5.65 log PFU/mL
same,FCV log inactivation,FCV; [3],0.19 log/mL
same,FCV titer after UVA,FCV; [4],4.49 log PFU/mL
same,FCV log inactivation,FCV; [4],1.35 log/mL
same,FCV titer after UVA,FCV; [5],2.22 log PFU/mL
same,FCV log inactivation,FCV; [5],3.62 log/mL
same,FCV titer after UVA,FCV; [6],0.52 log PFU/mL
same,FCV log inactivation,FCV; [6],5.32 log/mL
same,FCV titer after UVA,FCV; [7],4.91 log PFU/mL
same,FCV log inactivation,FCV; [7],0.93 log/mL
same,FCV titer after UVA,FCV; [8],2.00 log PFU/mL
same,FCV log inactivation,FCV; [8],3.84 log/mL
same,FCV titer after UVA,FCV; [9],<1.22 log PFU/mL
same,FCV log inactivation,FCV; [9],4.62 log/mL
same,FCV titer after UVA,FCV; [10],<−0.22 log PFU/mL
same,FCV log inactivation,FCV; [10],5.62 log/mL
same,FCV titer after UVA,FCV; [11],4.90 log PFU/mL
same,FCV log inactivation,FCV; [11],0.94 log/mL
same,FCV titer after UVA,FCV; [12],<0.22 log PFU/mL
same,FCV log inactivation,FCV; [12],5.62 log/mL
same,FCV titer after UVA,FCV; [13],<−0.48 log PFU/mL
same,FCV log inactivation,FCV; [13],5.84 log/mL
same,FCV titer after UVA,FCV; [14],<−0.30 log PFU/mL
same,FCV log inactivation,FCV; [14],5.84 log/mL
same,FCV titer after UVA,FCV; [15],4.33 log PFU/mL
same,FCV log inactivation,FCV; [15],1.51 log/mL
same,FCV titer after UVA,FCV; [16],<0.22 log PFU/mL
same,FCV log inactivation,FCV; [16],5.62 log/mL
same,FCV titer after UVA,FCV; [17],<−0.48 log PFU/mL
same,FCV log inactivation,FCV; [17],5.84 log/mL
same,FCV titer after UVA,FCV; [18],<−0.48 log PFU/mL
same,FCV log inactivation,FCV; [18],5.84 log/mL
same,FCV inactivation,"FCV; pre-incubation 4, 8 or 24 hours at 150 μM and 90 μM, 8 or 24 hours at 30 μM, 24 hours at 15 μM",greater than 4 logs
same,FCV inactivation,"FCV; pre-incubation 4 hr, 30 μM S-59",~4 logs
same,FCV inactivation,"FCV; pre-incubation 8 hr, 15 μM S-59",greater than 3.5 logs
